pIC50: −log10 of the molar value.
Key:
Format in all cases: biochemical
Aβ1-40 [1] = target: T1, Aβ1-40 (Homo sapiens, UniProt P05067); experiment: Tris-tricine SDS-PAGE, Aβ1-40 self-assembly following ThT aggregation assay; details: FIG. 9
T1 construct: Both Aβ1-40 and Aβ1-42 were purchased from Anaspec; purchased Anaspec
Protocol: (§1) Pre-cast polyacrylamide gels were purchased from NuSep (10-20% Tris-tricine-SDS). These were chosen for their large separation range of 2.5 to 205 kDa. Molecular weight markers were purchased from Sigma Aldrich and diluted twenty fold for individual use. Three buffers were used for this technique: 1) Sample buffer (1.25 mL 0.5 M Tris-HCl (pH 6.8), 2.5 mL glycerol, 2.0 mL 10% SDS, 0.2 mL 0.5% bromophenol blue, 3.55 mL distilled water) which was used as the leading band in the gel. 2) Cathode Buffer (12.11 g tris base, 17.92 g tricine, 1 g SDS, diluted to 1 L with distilled water) which was the inner buffer in the tank assembly. 3) Anode Buffer (5× concentrated: 121.1 g tris base in 1 L of distilled water, pH 8.9 adjusted with concentrated HCl) which was the outer buffer and loaded at 1× concentration. Both Aβ1-40 and Aβ1-42 were purchased from Anaspec.
(§2) Five solutions were required to stain the gels using the silver stain protocol: 1) Fixer 1 (40% methanol, 10% acetic acid, diluted to 1 L with Millie-Q water) 2) Fixer 2 (45 g anhydrous sodium acetate, 300 mL methanol, 5 mL 25% glutaraldehyde, diluted to 1 L with Millie-Q water), 3) a) Silver stain A (15 mL of 25% ammonia solution, 0.8 g sodium hydroxide, diluted to 950 mL with Millie Q water). b) Silver stain B (6 g of silver nitrate in 50 mL Millie Q water). Solution B was then slowly added to solution A. 4) Developer (0.1 g citric acid, 1 mL formaldehyde, diluted to 1 L with Millie-Q water), 5) Stop solution (50 mL acetic acid, diluted to 1 L with Millie-Q water).
(§3) Following a ThT (Aβ1-40) or ThS (Tau 441) aggregation assay, described in Example 8 of US2007/0015813, samples were immediately aspirated and stored in centrifuge tubes. 10 μL of each sample was transferred to a microfuge tube and diluted 1:1 with sample buffer before being incubated (37° C.) for 30 minutes and loaded in the precast gels (15 μL in each well). The gel was then run at 100 V for approximately one hour or until the leading band reached the bottom of the gel.
(§4) Once the gel had finished running, it was removed from its plastic case and placed in a tray for staining. Approximately 200-250 mL volume was used for all the solutions. The gel was first washed with distilled water briefly to rinse off the excess buffer from the tank. It was then immersed in Fixer 1 for 30 minutes. followed by Fixer 2 for 30 minutes. Once the gel was fixed it then underwent three water washes at 10 minutes per wash. After the water washes, the gel was stained for 30 minutes using the silver stain solution. Excess stain was removed using three four-minute water washes. The gel was then immersed in the developer solution to visualize the stain. This took place for approximately 5 minutes or until the desired intensity was reached. To immediately stop the developing process the gel was placed in the stop solution for 10 minutes.

Aβ1-40 [2] = target: T1, Aβ1-40; experiment: ThT fluorescence assay, inhibition of Aβ1-40 aggregation
Protocol: The compounds of the invention were evaluated for activity against Aβ aggregation in a kinetic thioflavin T (ThT) fluorescence assay similar to that of Chalifour, R. J., et al., J. Biol. Chem. (2003) 278: 34874-81. IC50 values for inhibition of Aβ1-40 aggregation in the ThT fluorescence assay for a number compounds of the present invention were determined. Values were calculated by solving the equation y=(m2)/(1+(x/m3)^m4) where y is percent aggregation, x is compound concentration, and m3 is the concentration giving 50% aggregation (i.e. IC50), using KaleidaGraph 4.0 (Synergy Software). Dye-binding ThT/ThS protein aggregation assays for Aβ, tau and α-synuclein were performed as described in Example 8 of US2007/0015813.

α-synuclein = α-synuclein (Homo sapiens, UniProt P37840); experiment: ThT fluorescence assay, α-synuclein aggregation; details: α-synuclein 4 μM, 96 hours, 37° C.
Protocol: (§5) The following procedures were used. The compounds were examined by circular dichroism (CD) to confirm their anti-amyloidogenic activity and were further evaluated for inhibition of both tau and α-synuclein aggregation in Thioflavin S (ThS) and ThT dye-binding fluorescence assays, respectively. The compounds were also evaluated in a MTT [3-(4,5-dimethylthiazol-2-yl)-2,5-diphenyltetrazolium bromide] cell viability assay (Kaneko, I., et al., J. Neurochem. (1995) 65: 2585-93). Pharmacokinetic (PK) testing was also performed. Compounds administered to mice (IP or PO dosing) had no toxicity at doses up to 300 mg/kg and were present in brain more than four hours after administration.
(§6) Dye-binding ThT/ThS protein aggregation assays for Aβ, tau and α-synuclein were performed as described in Example 8 of US2007/0015813.

Tau 441 [3] = target: T2, Tau 441 (Homo sapiens, UniProt P10636); experiment: Tris-tricine SDS-PAGE, Tau 441 self-assembly following ThS aggregation assay; details: FIG. 10
Protocol: as §1, §2, §3, §4

Tau 441 [4] = target: T2, Tau 441; experiment: ThS fluorescence assay, Tau 441 aggregation; details: Tau 441 6 μM; compound 50 μM and 10 μM; 24 hours, 37° C., FIG. 15
Protocol: as §5, §6

[5] = compound 50 μM and 10 μM, FIG. 17
[6] = compound 100 μM and 20 μM, FIG. 16

T2 sequence (P10636 1-441 isoform P10636-8): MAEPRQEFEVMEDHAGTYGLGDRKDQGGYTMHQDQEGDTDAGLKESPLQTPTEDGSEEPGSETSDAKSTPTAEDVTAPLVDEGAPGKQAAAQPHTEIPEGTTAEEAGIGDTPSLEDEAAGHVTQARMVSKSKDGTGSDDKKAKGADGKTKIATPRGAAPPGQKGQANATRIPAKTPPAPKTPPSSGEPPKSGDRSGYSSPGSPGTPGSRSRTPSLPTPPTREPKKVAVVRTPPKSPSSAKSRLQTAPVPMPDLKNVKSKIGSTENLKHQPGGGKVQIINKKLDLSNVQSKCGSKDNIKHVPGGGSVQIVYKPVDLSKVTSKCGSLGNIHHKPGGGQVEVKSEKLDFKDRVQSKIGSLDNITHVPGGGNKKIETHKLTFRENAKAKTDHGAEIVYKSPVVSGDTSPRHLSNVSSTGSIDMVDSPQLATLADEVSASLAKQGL
T1 sequence (P05067 672-711 limits assumed): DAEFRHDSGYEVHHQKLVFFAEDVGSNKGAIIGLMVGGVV

Compound	pIC50 (Aβ1-40 [2])	also measured
O=C(O)c1ccc2[nH]cc(-c3c[nH]c4ccc(O)cc34)c2c1 [QR-0142]	–	effect on distribution of Aβ1-40 among states of assembly / monomer (SDS-PAGE) (Aβ1-40 [1]): increase in the concentration of Aβ1-40 monomer
O=C(O)c1ccc2c(c1)c(-c1ccc3cc(O)ccc3c1)cn2Cc1ccccc1 [QR-0162, 1-Benzyl-3-(6-hydroxynaphthalen-2-yl)-indole-5-carboxylic acid]	4.76	inhibition of α-synuclein aggregation (ThT fluorescence) (α-synuclein; [5]): showed inhibition
Oc1cc2ccccc2c(-c2cc3ccccc3o2)c1O [QR-0164, 2-(2,3-Dihydroxynaphthalen-1-yl)-benzofuran]	5.52	inhibition of α-synuclein aggregation (ThT fluorescence) (α-synuclein; [5]): showed inhibition
COc1ccc2[nH]cc(-c3c[nH]c4ccc([N+](=O)[O-])cc34)c2c1 [QR-0171]	5.24	–
O=C(O)c1ccc2[nH]cc(-c3c[nH]c4cccc(O)c34)c2c1 [QR-0176]	5.70	inhibition of α-synuclein aggregation (ThT fluorescence) (α-synuclein; [6]): showed inhibition
Oc1cc2ccccc2c(-c2c[nH]c3ccccc23)c1O [QR-0189]	4.72	inhibition of α-synuclein aggregation (ThT fluorescence) (α-synuclein; [6]): showed inhibition
Oc1ccc2[nH]cc(-c3c(O)c(O)cc4ccccc34)c2c1 [QR-0212, 5-hydroxy-3-(2,3-dihydroxyynathalen-1-yl)-1H-indole]	5.09	inhibition of α-synuclein aggregation (ThT fluorescence) (α-synuclein; [6]): showed inhibition
COc1ccc2cc(-c3c[nH]c4ccc(C(=O)O)cc34)ccc2c1 [QR-0216]	4.45	–
Oc1ccc2cc(-c3c[nH]c4ccc(O)cc34)ccc2c1 [QR-0225, 5-Hydroxy-3-(2-hydroxynaphthalen-6-yl)-1H-indole]	5.15	–
Oc1ccc2cc(-c3ccc4c(c3)OCCO4)ccc2c1 [QR-0229, 6-(2,3-Dihydrobenzo[b][1,4]dioxin-7-yl)naphthalene-2-ol]	4.72	–
Oc1cc2ccccc2c(-c2ccc3c(c2)OCCO3)c1O [QR-0231, 1-(2,3-Dihydrobenzo[b][1,4]dioxin-7-yl)-2,3-dihydroxynaphthalene]	4.56	–
COc1ccc2[nH]cc(-c3c[nH]c4ccc(C#N)cc34)c2c1 [QR-0238]	4.68	–
N#Cc1ccc2[nH]cc(-c3c[nH]c4ccc(Br)cc34)c2c1 [QR-0240]	4.92	–
O=C(O)c1cc2cc(-c3cc4ccccc4o3)ccc2c(Br)c1O [QR-0244, 7-(Benzofuran-2-y)-4-bromo-3-hydroxynaphthalene-2-carboxylic acid]	5.25	Tau 441 dimer and trimer bands (SDS-PAGE) (Tau 441 [3]): appearance of dimer and trimer bands; effect on Tau 441 self-assembly, monomer fragmentation (SDS-PAGE) (Tau 441 [3]; relative to control): decreased fragmentation of tau 441 monomer; inhibition of Tau 441 aggregation (ThS fluorescence) (Tau 441 [4]): greatly inhibited
O=C(O)c1ccc2c(-c3c[nH]c4ccc(O)cc34)c[nH]c2c1 [QR-0253]	4.93	–
O=C(O)c1cccc2c(-c3cc4ccccc4o3)c[nH]c12 [QR-0256]	4.77	–
O=C(O)c1cccc2c(-c3ccc4cc(O)ccc4c3)c[nH]c12 [QR-0258, 3-(2-Hydroxynaphthalen-6-yl)-1H-indole-7-carboxylic acid]	5.00	–
O=C(O)c1cccc2c(-c3cc4ccccc4s3)c[nH]c12 [QR-0261]	4.99	–
Oc1ccc2[nH]cc(CN3CCc4ccccc4C3)c2c1 [QR-0269]	< 3.70	–

Compound	pIC50 (Aβ1-40 [2])	also measured
N#Cc1ccc2[nH]cc(-c3c[nH]c4ccc(O)cc34)c2c1 [QR-0276]	4.78	effect on distribution of Aβ1-40 among states of assembly / monomer (SDS-PAGE) (Aβ1-40 [1]): little effect
COc1c(C(=O)O)cc2cc(-c3ccc4c(c3)OCCO4)ccc2c1Br [QR-0282, 4-Bromo-7-(2,3-dihydrobenzo[b][1,4]dioxin-7-yl)-3-methoxynaphthalene-2-carboxylic acid]	–	Aβ1-40 dimer band (SDS-PAGE) (Aβ1-40 [1]): appearance of a dimer band; effect on distribution of Aβ1-40 among states of assembly / monomer (SDS-PAGE) (Aβ1-40 [1]): increase in the concentration of Aβ1-40 monomer
O=C(O)c1cccc2c(-c3cc4ccccc4o3)cn(Cc3ccccc3)c12 [QR-0284, 3-Benzofuran-2-yl-1-benzyl-1H-indole-7-carboxylic acid]	< 4.30	–
O=C(O)c1cccc2c(-c3cc4ccccc4s3)cn(Cc3ccccc3)c12 [QR-0287, 3-(Benzo[b]thiophen-2-yl)-1-benzyl-1H-indole-7-carboxylic acid]	4.71	–
COc1ccc(Nc2ccc(Nc3ccc(OC)cc3)cc2)cc1 [QR-0292]	6.27	–
Oc1ccc2cc(-c3cc4ccccc4o3)ccc2c1Br [QR-0297, 6-(Benzofuran-2-yl)-1-bromonaphthalen-2-ol]	6.24	–
Nc1ccc2[nH]cc(-c3c[nH]c4ccc(Br)cc34)c2c1 [QR-0300]	5.77	–
Nc1ccc2[nH]cc(-c3c4ccccc4cc4c3[nH]c3ccc(N)cc34)c2c1 [QR-0302]	5.49	–
O=C(O)c1cccc2c(-c3c[nH]c4ccc(Br)cc34)c[nH]c12 [QR-0303]	4.68	–
N#Cc1ccc2[nH]cc(-c3ccc4cc(O)ccc4c3)c2c1 [QR-0313]	5.19	–
COc1cccc(Nc2cccc(Nc3cccc(OC)c3)c2)c1 [QR-0315]	5.24	–
COc1ccccc1Nc1cccc(Nc2ccccc2OC)c1 [QR-0316]	< 4.30	–
Oc1ccc(Nc2cccc(Nc3ccc(O)cc3)c2)cc1 [QR-0319]	5.62	–
N#Cc1ccc2[nH]cc(-c3c(O)c(O)cc4ccccc34)c2c1 [QR-0321]	5.03	–
Oc1ccc(Nc2cccc(Nc3ccc(O)cc3)c2)cc1 [QR-0325]	5.99	–
Oc1cccc(Nc2cccc(Nc3cccc(O)c3)c2)c1 [QR-0326]	5.48	–
O=C(O)c1ccc2c(-c3c[nH]c4ccc([N+](=O)[O-])cc34)c[nH]c2c1 [QR-0327]	4.94	–
Oc1ccc(C=Cc2cc(O)cc(O)c2)cc1 [resveratrol, reference compound]	–	inhibition of α-synuclein aggregation (ThT fluorescence) (α-synuclein; [6]): showed inhibition

Source: patent US8362066B2, “Compounds and methods for treating protein folding disorders” (Treventis Corporation, priority 2006, dated 2013)
